Patent US4016042A, “Substrate for the quantitative determination of enzymes” (Pentapharm A.G., priority 1974, dated 1977)
Counter-ions that a name gives are not always drawn. Residues, ends and D or L forms follow the SMILES beside them. *: point of attachment. Hydrocinnamoyl = O=C(CCc1ccccc1)*; pNA = O=[N+]([O-])c1ccc(N*)cc1; Bz = O=C(c1ccccc1)*

Tests used:
Format in all cases: biochemical
thrombin = thrombin (Homo sapiens, UniProt P00734); experiment: Km and vmax determination with substrate (Lineweaver-Burk), thrombin; settings: NIH units per 1 substrate unit
Procedure: (§1) As is evident from equation (2) constants Km and k3 determine the activity of the enzyme substrate for a given enzyme. For determining these constants the following procedure is followed:
(§2) The enzyme and the substrate are mixed in a buffer solution, and the reaction is followed spectrophotometrically for 2 to 30 minutes. The concentration of substrate [S] is varied, whereas the enzyme concentration [E] is kept constant. If the extinction (OD) (= optical density) is plotted in a co-ordinate system as a function of time, a curve is obtained the tangent of which (difference in extinction per minute, Δ OD/minute, from which the quantity in μmoles of pNA/min (v) can be calculated) at time zero corresponds to the ideal course of the hydrolysis. By means of this tangent the initial rate of the hydrolysis can be determined.
(§3) If 1/v is plotted against 1/[S], a Lineweaver-Burk diagram (cf. "Kurzes Lehrbuch der Biochemie" by P. KARSON, Georg Thieme-Verlag, Stuttgart, 1967, p. 70) is obtained from which vmax and Km can be determined graphically.
(§4) Km and k3 = vmax /E were determined with N^α-Bz-Pro-Phe-Arg-pNA^. HCl (i.e. the substrate prepared according to Example 1) for plasma kallikrein, trypsin, plasmin and thrombin.

[1] = biological target: T1, prothrombin activator from venom of the snake Echis carinatus (Echis carinatus, UniProt Q90495); experiment: Activity of prothrombin activator measured with substrates at a constant substrate concentration
T1 sequence (Q90495 191-616): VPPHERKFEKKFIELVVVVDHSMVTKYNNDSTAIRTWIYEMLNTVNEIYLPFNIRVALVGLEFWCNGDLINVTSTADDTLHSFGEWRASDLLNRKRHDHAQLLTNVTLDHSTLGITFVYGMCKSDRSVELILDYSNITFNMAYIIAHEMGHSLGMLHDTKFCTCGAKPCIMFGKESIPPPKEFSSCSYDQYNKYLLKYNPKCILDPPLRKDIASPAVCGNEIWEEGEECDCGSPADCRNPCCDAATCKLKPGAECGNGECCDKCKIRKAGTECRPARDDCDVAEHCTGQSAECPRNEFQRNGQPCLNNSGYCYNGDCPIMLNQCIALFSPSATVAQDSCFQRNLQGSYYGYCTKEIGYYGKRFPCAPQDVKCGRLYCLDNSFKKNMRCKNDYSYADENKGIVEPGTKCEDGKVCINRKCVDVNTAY
Text: (§5) The degree of the enzymatic hydrolysis of the substrate, which is proportional to the quantity of p-nitroaniline formed, can be easily determined by spectrophotometric measurement at 405 nm. The presence of an excess of substrate exerts no disturbing effect on the measurement at 405 nm. The conditions are practically the same for the other substrates carrying a p-nitroanilino group as a chromogenic group. The spectrophotometric measurement was, therefore, carried out in all cases at 405 nm.
(§6) Activity of papain and prothrombin activator, measured by means
(§7) Quantity in nm of p-nitroaniline (pNA) re-
(§8) leased within 1 minute by 0.1 milli-Anson
(§9) unit^3) of papain and 10 μg of a pure fraction
of the prothrombin activator from venom of
the snake Echis carinatus
^2) The prothrombin activator is a serine-protease which was isolated
from the venom of the snake Echis carinatus.

plasma kallikrein [2] = biological target: T2, plasma kallikrein (Homo sapiens, UniProt P03952); experiment: Km and vmax determination with substrate (Lineweaver-Burk), plasma kallikrein; settings: common units per 1 substrate unit
Procedure: as §1, §2, §3, §4

plasmin [3] = biological target: T3, plasmin (Homo sapiens, UniProt P00747); experiment: Activity of human plasmin measured with the substrates at constant substrate and enzyme concentrations; settings: split product
Procedure: (§10) HCl, were used for the quantitative determination of various enzymes in blood plasma. The determination was carried out by taking advantage of the fact that the split product NH2 -R^2 formed by enzymatic hydrolysis of the substrate has a UV spectrum which differs from that of the substrate and is shifted toward higher wave lengths. Thus, N^α-Bz-Pro-Phe-Arg-pNA^.
(§11) The degree of the enzymatic hydrolysis of the substrate, which is proportional to the quantity of p-nitroaniline formed, can be easily determined by spectrophotometric measurement at 405 nm. […] The conditions are practically the same for the other substrates carrying a p-nitroanilino group as a chromogenic group. The spectrophotometric measurement was, therefore, carried out in all cases at 405 nm.

plasmin [4] = biological target: T3, plasmin; experiment: Km and vmax determination with substrate (Lineweaver-Burk), plasmin; settings: casein units per 1 substrate unit
Procedure: as §1, §2, §3, §4

plasma kallikrein [5] = biological target: T2, plasma kallikrein; experiment: Activity of plasma kallikrein measured with the substrates at constant substrate and enzyme concentrations; settings: split product
Procedure: as §10, §11

trypsin = biological target: T4, trypsin (Bos taurus, UniProt P00760); experiment: Km and vmax determination with substrate (Lineweaver-Burk), trypsin; settings: NF units per 1 substrate unit
T4 sequence (P00760 24-246): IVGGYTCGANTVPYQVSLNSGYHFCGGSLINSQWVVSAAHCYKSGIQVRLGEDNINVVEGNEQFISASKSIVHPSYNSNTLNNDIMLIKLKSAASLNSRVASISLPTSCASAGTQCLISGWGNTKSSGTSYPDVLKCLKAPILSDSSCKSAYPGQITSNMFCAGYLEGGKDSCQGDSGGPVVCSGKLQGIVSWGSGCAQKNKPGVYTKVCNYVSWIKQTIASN
Procedure: as §1, §2, §3, §4

papain = biological target: T5, papain (Carica papaya, UniProt P00784); experiment: Activity of papain measured with substrates at a constant substrate concentration
T5 construct: from tissue; host or cells: latex of the Carica papaya fruit
T5 sequence (P00784 134-345): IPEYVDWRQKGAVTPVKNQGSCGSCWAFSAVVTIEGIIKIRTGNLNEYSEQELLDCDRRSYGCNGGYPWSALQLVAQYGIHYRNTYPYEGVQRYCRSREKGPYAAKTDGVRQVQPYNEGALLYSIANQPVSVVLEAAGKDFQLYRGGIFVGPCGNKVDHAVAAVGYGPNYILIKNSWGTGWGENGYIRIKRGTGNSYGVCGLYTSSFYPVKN
Text: as §5, §6, §7, §8, §9
^1) Papain is a cysteine-protease isolated from the latex of the gree
^3) One Anson unit is the enzyme quantity which releases 1 mmole of
folin-positive amino acids (calculated as tyrosine) in 1 minute (cf. Art.

T2 sequence (P03952 391-638 limits assumed, species assumed): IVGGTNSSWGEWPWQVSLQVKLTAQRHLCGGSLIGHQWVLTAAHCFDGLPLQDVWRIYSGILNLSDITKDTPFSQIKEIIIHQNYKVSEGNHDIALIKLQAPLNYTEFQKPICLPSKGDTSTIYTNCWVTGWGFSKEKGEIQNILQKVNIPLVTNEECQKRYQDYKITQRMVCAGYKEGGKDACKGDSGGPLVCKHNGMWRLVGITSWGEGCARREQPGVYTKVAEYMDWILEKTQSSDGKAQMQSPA
T2 sequence (P03952 20-390 partner limits assumed, species assumed): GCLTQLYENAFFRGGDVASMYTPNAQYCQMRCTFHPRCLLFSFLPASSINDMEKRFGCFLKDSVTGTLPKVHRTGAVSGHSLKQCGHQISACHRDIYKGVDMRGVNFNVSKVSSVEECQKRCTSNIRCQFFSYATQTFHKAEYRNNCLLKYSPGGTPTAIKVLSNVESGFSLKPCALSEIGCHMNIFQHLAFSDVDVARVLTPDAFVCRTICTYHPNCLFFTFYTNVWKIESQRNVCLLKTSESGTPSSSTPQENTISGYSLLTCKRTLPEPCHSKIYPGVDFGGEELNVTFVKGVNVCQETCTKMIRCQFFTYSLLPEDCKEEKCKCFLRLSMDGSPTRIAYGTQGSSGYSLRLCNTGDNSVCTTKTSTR
T3 sequence (P00747 581-810 limits assumed): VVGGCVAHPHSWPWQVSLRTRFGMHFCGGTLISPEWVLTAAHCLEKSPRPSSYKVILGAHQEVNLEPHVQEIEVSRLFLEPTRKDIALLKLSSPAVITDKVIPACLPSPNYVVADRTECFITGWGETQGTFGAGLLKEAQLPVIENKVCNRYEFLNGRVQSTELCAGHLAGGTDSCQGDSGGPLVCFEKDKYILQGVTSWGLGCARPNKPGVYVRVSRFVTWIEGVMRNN
T3 sequence (P00747 97-580 partner limits assumed): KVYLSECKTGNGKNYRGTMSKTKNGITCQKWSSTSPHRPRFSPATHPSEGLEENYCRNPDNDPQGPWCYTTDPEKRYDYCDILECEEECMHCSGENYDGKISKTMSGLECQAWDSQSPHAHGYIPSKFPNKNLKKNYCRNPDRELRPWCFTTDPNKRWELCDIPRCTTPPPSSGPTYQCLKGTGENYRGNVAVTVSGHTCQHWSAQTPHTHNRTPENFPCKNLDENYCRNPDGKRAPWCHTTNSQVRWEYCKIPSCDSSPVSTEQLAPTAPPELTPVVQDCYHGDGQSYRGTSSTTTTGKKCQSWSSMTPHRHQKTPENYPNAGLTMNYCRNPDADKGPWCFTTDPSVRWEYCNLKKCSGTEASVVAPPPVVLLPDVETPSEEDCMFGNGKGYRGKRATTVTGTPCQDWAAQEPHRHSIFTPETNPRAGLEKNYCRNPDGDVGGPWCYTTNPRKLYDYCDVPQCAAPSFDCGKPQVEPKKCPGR

Row | Compound | relation between substrate units and common units (1 U = x) (thrombin) | Quantity of p-nitroaniline (pNA) released within 1 minute by 10 μg of a pure fraction of the prothrombin activator from venom of Echis carinatus [1] | relation between substrate units and common units (1 U = x) (plasma kallikrein [2]) | Quantity of p-nitroaniline (pNA), β-naphthylamine (2-NA) or 4-methoxy-β-naphthylamine (4-MeO-2-NA) released within 1 minute by one C unit of human plasmin (plasmin [3]) | relation between substrate units and common units (1 U = x) (plasmin [4]) | Quantity of p-nitroaniline (pNA), β-naphthylamine (2-NA) or 4-methoxy-β-naphthylamine (4-MeO-2-NA) released within 1 minute by 1 BAEE unit of plasma kallikrein (plasma kallikrein [5]) | relation between substrate units and common units (1 U = x) (trypsin) | Quantity of p-nitroaniline (pNA) released within 1 minute by 0.1 milli-Anson unit of papain (papain)
1 | N=C(N)NCCC[C@H](NC(=O)[C@H](Cc1ccccc1)NC(=O)[C@@H]1CCCN1C(=O)c1ccccc1)C(=O)Nc1ccc([N+](=O)[O-])cc1 [Substrate I, N^α-Bz-Pro-Phe-Arg-pNA^. HCl] (Bz-Pro-Phe-Arg-pNA) | 117600 NIH | 13.1 nm | 4.8 BAEE U | 152.0 nm | 518 C U | 135.5 nm | 12000 NF | 
2 | N=C(N)NCCC[C@H](NC(=O)[C@H](Cc1ccccc1)NC(=O)[C@@H]1CCCN1C(=O)CCc1ccccc1)C(=O)Nc1ccc([N+](=O)[O-])cc1 [Substrate VII, N^α -3-Phenyl-propionyl-Pro-Phe-Arg-pNA.HCl] (Hydrocinnamoyl-Pro-Phe-Arg-pNA) |  |  |  | 144.0 nm |  | 256.0 nm |  | 24.9 nm
